# PubChem BioAssay (NCI)
#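 How tested: cells in 96-well plates exposed to compound for 48 hours at five concentrations. The concentration for 50% growth inhibition is given as GI50. TGI: total growth inhibition.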
# Legend:
# Assay in all cases: DTP human tumour cell line panel, 48 h
# HOP-62 NSCLC = system: HOP-62 NSCLC
# HCT-116 colon = system: HCT-116 colon
# HOP-92 NSCLC = system: HOP-92 NSCLC
# MDA-MB-231 breast = system: MDA-MB-231 breast
# COLO 205 colon = system: COLO 205 colon
# SK-OV-3 ovarian = system: SK-OV-3 ovarian
# OVCAR-8 ovarian = system: OVCAR-8 ovarian
# MCF7 breast = system: MCF7 breast
# TK-10 renal = system: TK-10 renal
# UO-31 renal = system: UO-31 renal
SMILES,TGI (HOP-62 NSCLC) [µM],TGI (HCT-116 colon) [µM],TGI (HOP-92 NSCLC) [µM],TGI (MDA-MB-231 breast) [µM],TGI (COLO 205 colon) [µM],TGI (SK-OV-3 ovarian) [µM],TGI (OVCAR-8 ovarian) [µM],TGI (MCF7 breast) [µM],TGI (TK-10 renal) [µM],TGI (UO-31 renal) [µM],GI50 (HOP-62 NSCLC) [µM],GI50 (TK-10 renal) [µM],GI50 (UO-31 renal) [µM],GI50 (HCT-116 colon) [µM],GI50 (HOP-92 NSCLC) [µM],GI50 (OVCAR-8 ovarian) [µM],GI50 (MCF7 breast) [µM],GI50 (MDA-MB-231 breast) [µM],GI50 (COLO 205 colon) [µM],GI50 (SK-OV-3 ovarian) [µM]
Cc1cc2c(cc1-c1cc3c(cc1C)C(C(C)C)=C(O)C(=O)/C3=C\Nc1nc(-c3ccccc3)cs1)/C(=C/Nc1nc(-c3ccccc3)cs1)C(=O)C(O)=C2C(C)C,31.7,> 100,55.7,28.5,> 100,95.2,77,41.1,–,–,–,–,–,–,–,–,–,–,–,–
CCOC(=O)c1ccc(-c2cc(C)[nH]n2)[nH]1,> 100,> 100,> 100,> 100,> 100,> 100,> 100,–,> 100,> 100,–,–,–,–,–,–,–,–,–,–
CC1(C)CCC[C@]2(C)[C@@H]1CC[C@@]13O[C@@H]1C1=C(CO)C(=O)O[C@]14O[C@@H]4[C@@H]23,34.6,26.6,29.3,35.9,40.3,31.7,26.7,> 63.9,38,18.7,–,–,–,–,–,–,–,–,–,–
COCn1c(C)c(C)c2c(=O)oc(=O)[nH]c21,> 100,> 100,> 100,> 100,> 100,> 100,> 100,> 100,> 100,> 100,–,–,–,–,–,–,–,–,–,–
COc1c(-c2cc(C)c(Cl)c(=O)[nH]2)c(O)c(OC)c2occc12,> 100,> 100,> 100,> 100,> 100,> 100,> 100,> 100,> 100,> 100,–,–,–,–,–,–,–,–,–,–
CSC1=Nc2ccccc2-c2nc(-c3ccccc3)cc(-c3ccccc3)c2C1,> 100,30.7,–,41.6,> 100,30.6,> 100,–,36.8,76.6,–,–,–,–,–,–,–,–,–,–
CCCC1NC(C#N)(C#N)C(CCC)NC1(C#N)C#N (stereo not drawn),> 100,> 37.1,> 32.4,> 89.7,12.7,> 100,21.6,> 100,> 100,> 100,–,–,–,–,–,–,–,–,–,–
CCOC(=O)c1c(SC(=O)c2cc(OC)c(OC)c(OC)c2)n(-c2ccccc2)c(=S)n(-c2ccccc2)c1=O,> 100,> 100,> 100,> 100,> 100,> 100,> 100,> 100,> 100,–,–,–,–,–,–,–,–,–,–,–
c1ccc2c(c1)c1c(n2CCOCCN2CCCCC2)CCCC1,29,25,22.3,24.4,26,34.9,28.4,27.6,27.3,24.6,–,–,–,–,–,–,–,–,–,–
O=C1Cc2c(-c3ccc(Cl)cc3)cc(-c3ccccc3)nc2-c2ccccc2N1,53.3,15.3,14.6,20.1,12.9,18.8,11.6,> 42.5,21.3,14.8,–,–,–,–,–,–,–,–,–,–
COc1cc2c(cc1OCCCC(=O)Nc1cc(C(=O)Nc3cc(C(=O)Nc4cc(C(=O)NCCCN(C)C)n(C)c4)n(C)c3)n(C)c1)N=C[C@@H]1CCCN1C2=O,9.83,3.45,3.38,5.53,3.15,28.4,3.21,7.25,3.49,3.06,–,–,–,–,–,–,–,–,–,–
COc1cc(/C=C2\C[C@H]3[C@@H]4CC=C5C[C@@H](N6CCCC6)CC[C@]5(C)[C@H]4CC[C@]3(C)[C@H]2O)cc(OC)c1OC,30.6,27.6,25,33.6,36.5,35.9,23.4,22,34.6,6.6,–,–,–,–,–,–,–,–,–,–
N#CCCNCCN(CCN(C(=O)Nc1ccccc1)c1ccccc1)C(=O)Nc1ccccc1,> 100,> 100,> 100,> 100,46.3,> 100,> 100,> 100,> 100,> 100,–,–,–,–,–,–,–,–,–,–
C(=N\Nc1ncc(-c2cc3cc4c(cc3o2)OCO4)s1)/c1c[nH]c2ccccc12,7.95,10.2,5.34,–,–,–,> 100,5.39,5.59,1.57,1.6,2.4,0.348,2.13,1.49,1.65,0.566,–,–,–
CCSc1ncnc2c(C3OC(CO)C(O)C3O)nsc12 (stereo not drawn),> 100,> 100,> 100,> 100,> 100,> 100,> 100,> 100,–,–,–,–,–,–,–,–,–,–,–,–
CCN(CC)CCCCCCCCNc1c2ccc(Cl)cc2nc2ccc(OC)cc12,3.13,3.14,3.31,3.09,2.88,–,3.64,–,4.24,4.34,1.4,1.83,1.72,1.36,1.39,1.39,–,1.48,1.43,–
Cn1ccnc1CCc1ccc(F)cc1F,> 100,–,–,> 100,> 100,> 100,> 100,> 100,> 100,> 100,–,–,–,–,–,–,–,–,–,–
Cc1cc(S(=O)(=O)Nc2nc3ccsc3c(=O)n2N)c(S)cc1Cl,> 100,> 100,–,> 100,> 100,> 100,> 100,> 100,> 100,–,–,–,–,–,–,–,–,–,–,–
Cc1cn(C2CC(O)C(CO)C2C)c(=O)[nH]c1=O (stereo not drawn),> 100,> 100,> 100,–,> 100,> 100,> 100,–,–,> 100,–,–,–,–,–,–,–,–,–,–
COC12C=C/C(=C(/C(=O)OCc3ccncn3)C(=O)CCCCCCCCC3(OC)C=C/C(=C(/C(=O)OCc4ccncn4)C(=O)CCCCCCCC1)O3)O2,0.6,1.09,–,> 100,1.32,3.75,14.9,11,2.4,–,0.225,0.395,–,0.266,–,0.331,0.314,0.335,0.348,0.409
CC(=O)NC1(C)CCC(C(C)(C)NC(C)=O)CC1 (stereo not drawn),> 100,> 100,–,> 100,> 100,> 100,> 100,> 100,> 100,> 100,–,–,–,–,–,–,–,–,–,–
CC(C)(C)C#C[P+](c1ccccc1)(c1ccccc1)c1ccccc1,1.79,0.95,0.689,–,0.397,1.81,1.67,–,3.48,7.28,–,–,–,–,–,–,–,–,–,–

SMILES,TGI (HOP-62 NSCLC) [µM],TGI (HCT-116 colon) [µM],TGI (HOP-92 NSCLC) [µM],TGI (MDA-MB-231 breast) [µM],TGI (COLO 205 colon) [µM],TGI (SK-OV-3 ovarian) [µM],TGI (OVCAR-8 ovarian) [µM],TGI (MCF7 breast) [µM],TGI (TK-10 renal) [µM],TGI (UO-31 renal) [µM],GI50 (HOP-62 NSCLC) [µM],GI50 (TK-10 renal) [µM],GI50 (UO-31 renal) [µM],GI50 (HCT-116 colon) [µM],GI50 (HOP-92 NSCLC) [µM],GI50 (OVCAR-8 ovarian) [µM],GI50 (MCF7 breast) [µM],GI50 (MDA-MB-231 breast) [µM],GI50 (COLO 205 colon) [µM],GI50 (SK-OV-3 ovarian) [µM]
Cc1cc(O)c(C(C)C)cc1NC(=O)Nc1cccc2ccccc12,30.9,36.6,40.8,31.7,–,–,> 100,–,32.5,42.9,–,–,–,–,–,–,–,–,–,–
Cc1ccc(S(=O)(=O)NC(=O)NC(Cc2c[nH]c3ccccc23)C(=O)O)cc1 (stereo not drawn),> 100,> 100,> 100,> 100,> 100,> 100,> 100,–,> 100,> 100,–,–,–,–,–,–,–,–,–,–
COc1ccc2oc(S(=O)(=O)N3CC(CCl)c4ccc([N+](=O)[O-])cc43)cc2c1 (stereo not drawn),–,4.22,> 73.8,1.23,0.322,4.83,4.36,14.4,> 55.2,> 40.3,–,–,–,–,–,–,–,–,–,–
C/C(O)=C/c1nc2ccccc2nc1/C=C(/C)O,67.1,39.3,66.2,53,47.5,> 100,83.3,–,42.2,56,–,–,–,–,–,–,–,–,–,–
O=S(=O)(c1cc(Cl)ccc1Cl)N1CCN(S(=O)(=O)c2cc(Cl)ccc2Cl)CC1,> 100,> 100,> 100,> 100,–,–,> 100,> 100,> 100,> 100,–,–,–,–,–,–,–,–,–,–
C[C@]12CC[C@H]3[C@@H](CCC4=CC(=O)C=C[C@@]43O)[C@@H]1CCC2=O,> 100,> 100,> 100,> 100,> 100,–,> 100,> 100,–,> 100,–,–,–,–,–,–,–,–,–,–
CO/C(=N\N=C\c1ccc(Cl)cc1)c1ccncc1,> 100,> 100,> 100,–,> 100,> 100,> 100,–,> 100,> 100,–,–,–,–,–,–,–,–,–,–
O=C1C=Cc2c(Cl)sc(Cl)c21,4.2,2.33,–,> 100,–,28.5,–,3.9,4.39,–,–,–,–,–,–,–,–,–,–,–
Cc1nc2c(cc1C(=O)NN)c(=O)n(C)c(=O)n2C,> 100,> 100,–,> 100,> 100,> 100,> 100,> 100,> 100,> 100,–,–,–,–,–,–,–,–,–,–
CN(C(=O)C12C3C4(C(=O)O)C1(C(=O)N(C)C(C)(C)C)C1C2(C(=O)O)C3(C(=O)N(C)C(C)(C)C)C14C(=O)N(C)C(C)(C)C)C(C)(C)C (stereo not drawn),> 100,> 100,> 100,> 100,> 100,–,> 100,> 100,> 100,> 100,–,–,–,–,–,–,–,–,–,–
C=CCOc1ccc(C2c3c([nH][nH]c3=O)CC(O)(OCC)C2C(=O)OCC)cc1OC (stereo not drawn),> 100,> 100,> 100,> 100,> 100,–,> 100,> 100,> 100,> 100,–,–,–,–,–,–,–,–,–,–
COc1cc(Oc2nc3ccccc3nc2C(=O)O)cc(OC)c1OC,> 100,> 100,> 100,> 100,> 100,> 100,> 100,–,> 100,> 100,–,–,–,–,–,–,–,–,–,–
Oc1nc(N/N=C/c2c[nH]c3ccccc23)[nH]c1/C=C1\C=Nc2ccccc21,80.9,36.7,36.9,43.2,26.7,> 100,29.2,29.5,> 100,–,–,–,–,–,–,–,–,–,–,–
Nn1c(Cc2ccc(Cl)cc2)n[nH]c1=O,> 100,> 100,> 100,> 100,> 100,> 100,> 100,–,> 100,> 100,–,–,–,–,–,–,–,–,–,–
Cc1oc2nc1C(=O)NCc1nc(cs1)C(=O)N[C@H](C(C)C)c1nc(cs1)C(=O)N[C@H]2C,> 100,> 100,> 100,> 100,> 100,> 100,> 100,> 100,–,> 100,–,–,–,–,–,–,–,–,–,–
C=Nc1ccc([N+](=O)[O-])cc1,–,> 100,> 100,–,> 100,> 100,> 100,–,> 100,> 100,–,–,–,–,–,–,–,–,–,–
CCCSc1cc(Cl)c(C)cc1S(=O)(=O)n1ccnc1OCCCN(C)C,> 100,> 100,–,> 100,> 100,> 100,> 100,> 100,> 100,> 100,–,–,–,–,–,–,–,–,–,–
N/C(=N\N=C\c1ccc2c(c1)OCO2)NO,66.7,59.8,83.1,> 100,40.3,> 100,40,> 100,> 100,–,–,–,–,–,–,–,–,–,–,–
CC1(C)O[C@H](C(=O)O)[C@@H](C(=O)O)O1,> 100,> 100,> 100,> 100,> 100,> 100,> 100,> 100,> 100,–,–,–,–,–,–,–,–,–,–,–
COC(=O)C1=C(C)N2CCCOC2(C)C(C(=O)OC)C1c1cccc(Cl)c1 (stereo not drawn),48.7,> 100,73.9,–,37.9,–,87.9,–,> 100,71.2,–,–,–,–,–,–,–,–,–,–
CCOC(=O)C(=[N+]=[N-])C(=O)C[N+]12CCN(CC1)CC2,> 100,> 100,> 100,> 100,> 100,> 100,> 100,–,> 100,> 100,–,–,–,–,–,–,–,–,–,–
CC(C)CC(=O)NC(Nc1ccc(S(=O)(=O)Nc2ncccn2)cc1)(C(F)(F)F)C(F)(F)F,> 100,> 100,> 100,> 100,> 100,> 100,> 100,–,–,> 100,–,–,–,–,–,–,–,–,–,–
